Test results: paper PMC12190436, “5-Ene-2-arylaminothiazol-4(5H)-ones Induce Apoptosis in Breast Cancer Cells” (Cells, 2025)

Assays:
[1] = test system: p53; assay: p53 concentration, SimpleStep ELISA; assay type: cell-based, human; conditions: 5 µM, 24 h, MCF-7
Description: (§1) To determine the effects of the new 4-thiazolidinone derivatives and the reference drug on the concentration of p53 and cytochrome C in MCF-7 cell lysates or supernatants after 24 h of treatment, highly sensitive SimpleStep ELISA (enzyme-linked immunosorbent assay) kits (Abcam, Cambridge, UK) were applied. The cells were collected and washed thrice with cold PBS and centrifuged at 1000× g for 5 min at 4 °C. Next, the cells were suspended in lysis buffer to acquire cell lysates. Concurrently, the supernatants, acquired after centrifugation, were frozen immediately at −80 °C. The standards, samples, and antibody cocktail were added to the appropriate microtiter plate wells, followed by 1 h incubation at room temperature. The content of microplate wells was extracted, and the wells were washed thrice. Afterwards, a TMB development solution was added to each well. The enzyme–substrate reaction was terminated with a stop solution. The change in color was assessed by UV-VIS Helios Gamma (Unicam/ThermoFisher Scientific Inc., Cleveland, OH, USA) at 450 ± 2 nm wavelength.
(§2) Both p53 and cytochrome C proteins play pivotal roles in the process of apoptosis. For this reason, concentrations of the mentioned proteins were measured in MCF-7 cells after 24 h treatment with the tested compounds (Les-6416, Les-6418, Les-6381, Les-6423, Les-6424) in concentrations of 5 µM.

[2] = test system: cytochrome C; assay: cytochrome C concentration, SimpleStep ELISA; assay type: cell-based, human; conditions: 5 µM, 24 h, MCF-7
Description: as §1, §2

[3] = test system: 786-0; assay type: cell-based
[4] = test system: SK-MEL-28; assay type: cell-based
[5] = test system: Breast Cancer; assay type: cell-based
[6] = test system: MOLT-4; assay type: cell-based
[7] = test system: DU-145; assay type: cell-based
[8] = test system: MALME -3M; assay type: cell-based
[9] = test system: NCI/ADR-RES; assay type: cell-based
[10] = test system: Prostate Cancer; assay type: cell-based
[11] = test system: HS 578T; assay type: cell-based
[12] = test system: LOX IMVI; assay type: cell-based; conditions: MG_MID_60/value
[13] = test system: KM12; assay type: cell-based
[14] = test system: SW-620; assay type: cell-based
[15] = test system: SK-OV-3; assay type: cell-based
[16] = test system: Non-small Cell Lung Cancer; assay type: cell-based
[17] = test system: SR; assay type: cell-based
[18] = test system: UACC-257; assay type: cell-based
[19] = test system: HCT-15; assay type: cell-based
[20] = test system: K-562; assay type: cell-based
[21] = test system: RPMI-8226; assay type: cell-based
[22] = test system: SK-MEL-2; assay type: cell-based
[23] = test system: HOP-62; assay type: cell-based
[24] = Homo sapiens, 48 h, read-out: LC50 (the source's name)

## COc1cc(NC2=NC(=O)C(=Cc3ccc4cc[nH]c4c3)S2)cc(OC)c1OC [Les-6416, 5-((1H-Indol-6-yl)methylene)-2-((3,4,5-trimethoxyphenyl)amino)thiazol-4(5H)-one]
[1]
  Concentration of p53: 2.27 ± 0.55 ng/mL
[2]
  Concentration of cytochrome c: 4.56 ± 0.85 ng/mL

## COc1cc(NC2=NC(=O)C(=Cc3c[nH]c4ccccc34)S2)cc(OC)c1OC [Les-6418, 5-((1H-Indol-3-yl)methylene)-2-((3,4,5-trimethoxyphenyl)amino)thiazol-4(5H)-one]
[3]; 786-0, 10 μM, one dose, 48 h
  Growth %: −73.06%
[3]; 786-0, 48 h
  TGI: 11.9 µM
[3]; 786-0, MG_MID_60/value
  SI (TGI): 1.56
[3]; Homo sapiens, 786-0, 48 h
  GI50: 2.72 µM
[3]; Homo sapiens, 786-0, 48 h, read-out: LC50 (the source's name)
  CC50: 55.7 µM
[4]; Homo sapiens, SK-MEL-28, 48 h
  GI50: 6.07 µM
[4]; Homo sapiens, SK-MEL-28, 48 h, read-out: LC50 (the source's name)
  CC50: 49.9 µM
[4]; SK-MEL-28, 48 h
  TGI: 21.0 µM
[4]; SK-MEL-28, MG_MID_60/value
  SI (TGI): 0.89
[5]; Breast Cancer subpanel mean
  MG_MID TGI: 13.2 µM
[5]; Breast Cancer subpanel, MG_MID_60/value
  SI (MG_MID TGI): 1.41
[5]; Homo sapiens, Breast Cancer subpanel mean, read-out: MG_MID GI50
  GI50: 2.32 µM
[5]; Homo sapiens, Breast Cancer subpanel mean, read-out: MG_MID LC50
  CC50: 55.8 µM
[6]; Homo sapiens, MOLT-4, 48 h
  GI50: 2.63 µM
[6]; Homo sapiens, MOLT-4, 48 h, read-out: LC50 (the source's name)
  CC50: > 100 µM
[6]; MOLT-4, 48 h
  TGI: 26.0 µM
[6]; MOLT-4, MG_MID_60/value
  SI (GI50): 1.24
  SI (TGI): 0.72
[7]; DU-145, 48 h
  TGI: 17.2 µM
[7]; DU-145, MG_MID_60/value
  SI (TGI): 1.08
[7]; Homo sapiens, DU-145, 48 h
  GI50: 4.63 µM
[7]; Homo sapiens, DU-145, 48 h, read-out: LC50 (the source's name)
  CC50: 47.4 µM
[8]; 48 h
  TGI: 15.2 µM
[8]; Homo sapiens, 48 h
  GI50: 2.01 µM
[8]; [24]
  CC50: 43.9 µM
[8]; MG_MID_60/value
  SI (TGI): 1.22
[9]; 48 h
  TGI: 24.2 µM
[9]; Homo sapiens, 48 h
  GI50: 6.24 µM
[9]; [24]
  CC50: 74.2 µM
[9]; MG_MID_60/value
  SI (TGI): 0.77
[10]; Homo sapiens, Prostate Cancer subpanel mean, read-out: MG_MID GI50
  GI50: 3.61 µM
[10]; Homo sapiens, Prostate Cancer subpanel mean, read-out: MG_MID LC50
  CC50: 70.8 µM
[10]; Prostate Cancer subpanel mean
  MG_MID TGI: 19.9 µM
[10]; Prostate Cancer subpanel, MG_MID_60/value
  SI (MG_MID TGI): 0.93
[11]; 48 h
  TGI: 11.9 µM
[11]; Homo sapiens, 48 h
  GI50: 2.33 µM
[11]; [24]
  CC50: > 100 µM
[11]; MG_MID_60/value
  SI (TGI): 1.56
[12]
  SI (TGI): 1.34
[13]; Homo sapiens, KM12, 48 h
  GI50: 0.977 µM
[13]; Homo sapiens, KM12, 48 h, read-out: LC50 (the source's name)
  CC50: 70.7 µM
[13]; KM12, 48 h
  TGI: 16.8 µM
[13]; KM12, MG_MID_60/value
  SI (TGI): 1.11
[14]; Homo sapiens, SW-620, 48 h
  GI50: 3.1 µM
[14]; Homo sapiens, SW-620, 48 h, read-out: LC50 (the source's name)
  CC50: 85 µM
[14]; SW-620, 48 h
  TGI: 21.8 µM
[14]; SW-620, MG_MID_60/value
  SI (TGI): 0.85
[15]; Homo sapiens, SK-OV-3, 48 h
  GI50: 2.56 µM
[15]; Homo sapiens, SK-OV-3, 48 h, read-out: LC50 (the source's name)
  CC50: 38.5 µM
[15]; SK-OV-3, 48 h
  TGI: 10.3 µM
[15]; SK-OV-3, MG_MID_60/value
  SI (TGI): 1.81
[16]; Homo sapiens, Non-small Cell Lung Cancer subpanel mean, read-out: MG_MID GI50
  GI50: 3.66 µM
[16]; Homo sapiens, Non-small Cell Lung Cancer subpanel mean, read-out: MG_MID LC50
  CC50: 61.1 µM
[16]; Non-small Cell Lung Cancer subpanel mean
  MG_MID TGI: 15.6 µM
[16]; Non-small Cell Lung Cancer subpanel, MG_MID_60/value
  SI (MG_MID TGI): 1.19
[17]; 48 h
  TGI: 29.9 µM
[17]; Homo sapiens, 48 h
  GI50: 0.394 µM
[17]; [24]
  CC50: > 100 µM
[17]; MG_MID_60/value
  SI (TGI): 0.62
[18]; Homo sapiens, UACC-257, 48 h
  GI50: 5.18 µM
[18]; Homo sapiens, UACC-257, 48 h, read-out: LC50 (the source's name)
  CC50: 52.7 µM
[18]; UACC-257, 48 h
  TGI: 21.1 µM
[18]; UACC-257, MG_MID_60/value
  SI (TGI): 0.88
[19]; HCT-15, 48 h
  TGI: 12.4 µM
[19]; HCT-15, MG_MID_60/value
  SI (TGI): 1.50
[19]; Homo sapiens, HCT-15, 48 h
  GI50: 1.79 µM
[19]; Homo sapiens, HCT-15, 48 h, read-out: LC50 (the source's name)
  CC50: 37.7 µM
[20]; Homo sapiens, K562, K-562, 48 h
  GI50: 0.526 µM
[20]; Homo sapiens, K562, K-562, 48 h, read-out: LC50 (the source's name)
  CC50: > 100 µM
[20]; K-562, 48 h
  TGI: 31.1 µM
[20]; K-562, MG_MID_60/value
  SI (TGI): 0.60
[21]; Homo sapiens, RPMI-8226, 48 h
  GI50: 5.73 µM
[21]; Homo sapiens, RPMI-8226, 48 h, read-out: LC50 (the source's name)
  CC50: > 100 µM
[21]; RPMI-8226, 48 h
  TGI: > 100 µM
[21]; RPMI-8226, MG_MID_60/value
  SI (TGI): 0.19
[22]; Homo sapiens, SK-MEL-2, 48 h
  GI50: 1.45 µM
[22]; Homo sapiens, SK-MEL-2, 48 h, read-out: LC50 (the source's name)
  CC50: 43.1 µM
[22]; SK-MEL-2, 48 h
  TGI: 12.2 µM
[22]; SK-MEL-2, MG_MID_60/value
  SI (TGI): 1.52
[23]; HOP-62, 48 h
  TGI: 15.7 µM
[23]; HOP-62, MG_MID_60/value
  SI (TGI): 1.18
[23]; Homo sapiens, HOP-62, 48 h
  GI50: 2.69 µM
  LC50: 65.9 µM
